The text below walks through data of US7273866B2, “2-aryl thiazole derivatives as KCNQ modulators” (Bristol-Myers Squibb Company, priority 2002, dated 2007).

In general, EC50 refers to the concentration needed to bring the measured effect to its halfway point.

One experiment addresses T1, mKCNQ2 channels (Mus musculus, UniProt Q9Z351).
T1 construct: expressed in transfected cells
Nature of the experiment: KCNQ patch-clamp (whole-cell recordings, HEK 293 stable cell line). The experiment is classed as cell-based. The following applies: current of KCNQ2 channels, HEK 293 cells expressing mKCNQ2. The method, then:
KCNQ Patch-clamp. Whole-cell patch-clamp recordings were made from an HEK 293 stable cell line expressing mKCNQ2 channels, maintained in culture for 1-2 days. Patch pipettes had initial resistances of 2.5-4 MΩ. Currents were recorded with an EPC-9 amplifier (HEKA, Lambrecht, Germany) controlled with software (Pulse, HEKA) run on a standard lab PC. Series resistance compensation was used during current recording, and set at 80%. The series resistance (R) and cell capacitance (C) were determined electronically by subtracting the capacitive currents at the onset and offset of a 5 mV voltage step. The cancellation of whole-cell capacitive transients was virtually complete in all cells. Analog current signals were low-pass filtered at 2.9 kHz using a four-pole Bessel filter −3 dB) and stored on a local network server computer at a sampling rate of […]. All recordings were performed at room temperature (20-22° C.). The pipette solution contained (mM) KCl, 150; CaCl2, 2.5; EGTA, 5; MgCl2, 1; HEPES, 10; pH to 7.3 with KOH, and Osmolality of 290-300 mOsm. The extracellular solution contained (mM): NaCl, 140; KCl, 2.5; CaCl2, 2.5; MgCl2, 1; glucose, 10; HEPES, 10; pH to 7.3 with NaOH, and Osmolality of 305-310 mOsm. […]
Background: The patch-clamp technique gives a direct electrical read-out from membranes.

The subject of experiment [1] is systemic polyneuropathy nerve injury-induced tactile allodynia. Put plainly: Diabetic model of neuropathic pain (Streptozoticin & von Frey test). The experiment is classed as in vivo, Sprague Dawley rats. The following applies: 10 mg/kg, i.v.; STZ diabetic rats, von Frey thresholds over 90 min. The method, then: Diabetic model of neuropathic pain (Streptozoticin & von Frey test). To test agents for activity against systemic polyneuropathy nerve injury-induced tactile allodynia, animals were treated with streptozoticin (STZ) to create a diabetic condition by selective cytotoxic action upon pancreatic β-islet cells that produce insulin following the method of Courteix, et al. (Courteix C., et al., (1993) Pain, April; 53(1):81-8). In brief, male Sprague Dawley rats (wt. 200-275 g) received an injection of STZ (75 mg/kg, i.p.) and diabetes was confirmed three weeks after STZ injection by measurement of tail vein blood glucose levels. After 3-4 weeks, paw withdrawal to light touch was assessed as described by Chaplan et al. (Chaplan S. R., et al., (1994) J Neurosci Methods, July; 53(1):55-63). In brief, rats are placed in a plastic cage with a wire mesh bottom and allowed to acclimate for 15-30 minutes, until cage exploration and grooming stops. […] After acclimation, baseline von Frey thresholds were assessed for the injured hindpaw at −15 min. […] Following drug administration, von Frey thresholds were measured at 15, 30, 60 and 90 min. Data were analyzed by a 2-way repeated measures analysis of variance followed by Dunnett's test (p<0.05). […]

For `CC(NC(=O)c1sc(-c2ccccc2F)nc1C(F)(F)F)c1cccc(OC(F)(F)F)c1` (centres unmarked) [Example 21, 2-(2-fluorophenyl)-4-(trifluoromethyl)-N-[1-[3-(trifluoromethoxy)phenyl]ethyl]-5-thiazolecarboxamide], on mKCNQ2 channels, a half-maximal response (EC50) required 3 nM. In experiment [1], the “AUC (Δ % MPE)” value is recorded as 28 (10 mg/kg, i.v.) Δ % MPE.
